Reference: patent US20020142297A1, “Compositions and methods for imaging gene expression” (The General Hospital Corporation, a Massachusetts …, priority 1997, published 2002)

Experiments:
[1] = In vivo detection of RPCs in muscle tissue (gamma imaging after i.v. 99mTc gluceptate); details: rats, rectus femoris muscle injected with RPC; 1 hour after i.v. injection of 0.5 mCi 99mTc gluceptate
Procedure: RPCs having the sequences GGGCGGGCGGGC (SEQ ID NO: 13) and GGGCGGGC (SEQ ID NO: 14) were dissolved in sterile saline to give a concentration of 1 μM thiol (i.e., the —SH function groups of cysteine residues). 100 μl of this solution was injected into the rectus femoris muscles of anesthetized rats. Ten minutes after injection, 0.5 mCi of ^99mTc gluceptate-[bis(oxotechnetate(v)glucoheptonate] anion was injected via intravenous catheter. The animals were imaged at 10 minutes and at 1 hour after the injection of the isotope. It was suspected that Tc glucoheptonate can permeate into the interstitium and be taken up non-specifically (e.g., by pinocytosis) by resident cells, thus creating background activity.
Nonetheless, the radioactivity that had accumulated in the injected muscle 1 hour after injection with the RPC containing three consecutive GGGC repeats (SEQ ID NO: 13) or two consecutive GGGC repeats (SEQ ID NO: 14) were 3- or 2-fold higher, respectively, than the radioactivity that had accumulated in the contralateral (control) muscle at that time. No differences in radioactivity accumulated in injected vs. control muscles were detected in animals injected with saline, or an RPC pretreated with N-ethylmaleimide to block oxotechnetate-binding sites.

[2] = Labeling of RPC with 99mTc-glucoheptonate and stability of the metal-RPC complex by reverse-phase HPLC; format: binding
Procedure: The tetrapeptide WGGC (SEQ ID NO: 1) was incubated with ^99mTc-gluccheptonate. […] The label was ascertained to be stably associated with the peptide for at least 24 hours as determined by reverse-phase high performance liquid chromatography (HPLC) (see, FIG. 7).
FIGS. 6 and 7 are the HPLC traces corresponding to the binding 30 minutes and 24 hours post-injection, respectively. In both traces, the bold line represents radioactivity and the thin line represents absorbance. The naked ^99mTc-glucoheptonate has a retention time of 2 minutes, while the RPC-Tc complex has a retention time of 5 to 9 minutes.

Substance | radioactivity accumulated in the injected muscle vs. the contralateral (control) muscle [1] [fold] | radiation at 2 minutes (retention time of naked 99mTc-glucoheptonate) ([2]; 30 minutes, HPLC radioactivity trace (FIG. 6)) | share of total integral at 2 minutes (retention time of naked 99mTc-glucoheptonate) ([2]; 24 hours, HPLC radioactivity trace (FIG. 7)) [%] | labeling of the peptide ([2]; incubated with 99mTc-glucoheptonate, within 30 minutes) [%] | time the label is stably associated with the peptide ([2]; reverse-phase HPLC)
GGGCGGGC [SEQ ID NO: 14, RPC containing two consecutive GGGC repeats] | 2 |  |  |  | 
GGGCGGGCGGGC [SEQ ID NO: 13] | 3 |  |  |  | 
WGGC |  | no radiation is observed above the baseline | 0.468 | 99 | at least 24 hours
